Source: patent publication US7642272B2, “Cannabinoid receptor ligands” (Schering Corporation, priority 2003, dated 2010)

Molecular target: T1, recombinant human cannabinoid CB2 receptor (Homo sapiens, UniProt P34972)
T1 construct: purchased Receptor Biology RB-HCB2
Assay: competition with [3H] CP-55,940 for binding to recombinant cannabinoid receptor membranes (CB2)
Details: not given
Method: Potential cannabinoid receptor ligands were screened for the ability to compete with [^3H] CP-55,940 for binding to recombinant cannabinoid receptors. Test compounds were serially diluted in Diluent Buffer (50 mM Tris pH 7.1, 1 mM EDTA, 3 mM MgCl2, 0.1% BSA, 10% DMSO, 0.36% methyl cellulose (Sigma M-6385)) from stocks prepared in 100% DMSO. Aliquots (10 μL) were transferred into 96-well microtiter plates. Membrane preparations of recombinant human cannabinoid CB2 receptor (Receptor Biology #RB-HCB2) or recombinant human cannabinoid CB1 receptor (Receptor Biology #RB-HCB1) were diluted to 0.3 mg/mL in Binding Buffer (50 mM Tris pH 7.2, 1 mM EDTA, 3 mM MgCl2, 0.1% BSA). Aliquots (50 μL) were added to each well of the microtiter plate. The binding reactions were initiated by addition of [^3H] CP-55,940 (New England Nuclear # NET 1051; specific activity=180 Ci/mmol) to each well of the microtiter plate. Each 100 μl reaction mixture contained 0.48 nM [^3H] CP-55,940, 15 μg membrane protein in binding buffer containing 1% DMSO and 0.036% methyl cellulose. Following incubation for 2 hours at room temperature, the reactions were filtered through 0.5% polyethylenimine-coated GF/C filter plates (UniFilter-96, Packard) with a TomTec Mark 3U Harvester (Hamden, CT). The filter plate was washed 5 times with binding buffer, rotated 180°, then re-washed 5 times with binding buffer. Bound radioactivity was quantitated following addition of 30 μl of Packard Microscint 20 scintillant in a Packard TopCount NXT microplate scintillation counter. Non-linear regression analysis of the resulting data was performed using Prism 2.0b (GraphPad, San Diego, Calif.).
The activities (potencies) for the compounds of the invention are determined by measuring their Ki values.

T1 sequence (P34972 whole entry): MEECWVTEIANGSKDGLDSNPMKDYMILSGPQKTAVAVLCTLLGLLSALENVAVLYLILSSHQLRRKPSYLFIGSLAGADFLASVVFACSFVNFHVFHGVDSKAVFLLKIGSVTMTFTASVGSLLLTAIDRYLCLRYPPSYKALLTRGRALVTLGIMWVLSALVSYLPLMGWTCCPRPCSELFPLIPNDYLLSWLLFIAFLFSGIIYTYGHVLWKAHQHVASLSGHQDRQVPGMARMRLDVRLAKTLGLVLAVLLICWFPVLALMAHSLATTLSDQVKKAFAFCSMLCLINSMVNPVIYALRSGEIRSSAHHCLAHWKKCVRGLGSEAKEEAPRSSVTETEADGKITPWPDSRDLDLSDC

SMILES	Ki
COc1ccc(S(=O)(=O)c2ccc(C(C)C)cc2)c(S(=O)(=O)c2ccccn2)c1 [AG]	< 20 nM
CC(C)c1ccc(S(=O)(=O)c2c(S(=O)(=O)c3ccccc3F)c3ccccc3n2C)cc1 [AO]	< 20 nM
CC(C)c1ccc(Cc2ccc(OC(F)(F)F)cc2S(=O)(=O)c2ccccc2F)cc1 [C]	< 20 nM
CC(C)c1ccc(S(=O)(=O)c2ccc(OC(F)(F)F)cc2S(=O)(=O)c2ccccc2F)cc1 [F]	< 20 nM

Same assay, conditions: 0.48 nM [3H] CP-55,940, 15 μg membrane protein, 2 hours at room temperature; read-out: CB2 Ki

Ki	SMILES
< 20 nM	CC(C)Oc1ccc(S(=O)(=O)c2ccc(C(C)C)cc2)c(S(=O)(=O)c2ccccc2F)c1 [AK]
< 20 nM	CC(C)c1ccc(S(=O)(=O)c2c(S(=O)(=O)c3ccccn3)c3ccccc3n2C)cc1 [AQ]
< 20 nM	CC(C)c1ccc(S(=O)(=O)c2ccc(OC(F)(F)F)cc2S(=O)(=O)c2ccccn2)cc1 [G]
< 20 nM	O=S(=O)(c1ccc(C2CC2)cc1)c1ccc(Cl)cc1S(=O)(=O)c1ccccc1F [K]
< 20 nM	COCCOc1ccc(S(=O)(=O)c2ccc(C(C)C)cc2)c(S(=O)(=O)c2ccccc2F)c1 [S]

The remaining lines, values behind:

SMILES	Ki
COc1ccc(S(=O)(=O)c2ccc(C3CC3)cc2)c(S(=O)(=O)c2ccccc2F)c1 [AH]	< 20 nM
CC(C)c1ccc(S(=O)(=O)c2ccc(C(C)C)cc2S(=O)(=O)c2ccccn2)cc1 [AJ]	< 20 nM
